Earlier results in EP3335699A1, “SELEXIPAG FORMULATION IN LIQUISOLID SYSTEM” (H e x a l Aktiengesellschaft, priority 2016, dated 2018).

Conditions: low solubility and low permeability; b10 refers to crystalline forms

BCS (Biopharmaceutics Classification System) class: class IV
Structure (SMILES): CC(C)N(CCCCOCC(=O)NS(C)(=O)=O)c1cnc(-c2ccccc2)c(-c2ccccc2)n1 [selexipag]
